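Where inhibition never reached the appropriate level, the endpoint shown equals the highest concentration tested. Otherwise, values were interpolated linearly from a five-concentration, 48-hour dose response in 96-well plates. GI50 marks 50% less growth. TGI: concentration producing complete growth inhibition.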
Assays:
Assay in all cases: NCI tumour cell line growth inhibition, 48 h
786-0 renal = system: 786-0 renal
A498 renal = system: A498 renal
A549 NSCLC = system: A549 NSCLC
ACHN renal = system: ACHN renal
BT-549 breast = system: BT-549 breast
CAKI-1 renal = system: CAKI-1 renal
CCRF-CEM leukemia = system: CCRF-CEM leukemia
COLO 205 colon = system: COLO 205 colon
DU-145 prostate = system: DU-145 prostate
EKVX NSCLC = system: EKVX NSCLC
HCC-2998 colon = system: HCC-2998 colon
HCT-116 colon = system: HCT-116 colon
HCT-15 colon = system: HCT-15 colon
HL-60(TB) leukemia = system: HL-60(TB) leukemia
HOP-62 NSCLC = system: HOP-62 NSCLC
HOP-92 NSCLC = system: HOP-92 NSCLC
HS 578T breast = system: HS 578T breast
HT29 colon = system: HT29 colon
IGROV1 ovarian = system: IGROV1 ovarian
K-562 leukemia = system: K-562 leukemia
KM12 colon = system: KM12 colon
LOX IMVI melanoma = system: LOX IMVI melanoma
M14 melanoma = system: M14 melanoma
MALME-3M melanoma = system: MALME-3M melanoma
MCF7 breast = system: MCF7 breast
MDA-MB-231 breast = system: MDA-MB-231 breast
MDA-MB-435 = system: MDA-MB-435
MOLT-4 leukemia = system: MOLT-4 leukemia
NCI-H226 lung = system: NCI-H226 lung

## CNC(=O)NCC1OC(n2cnc3c(NC(=O)Nc4ccccc4)ncnc32)C(O[Si](C)(C)C(C)(C)C)C1CC(=O)N(C)OC (stereo not drawn)
786-0 renal
  GI50: 7.06 µM
  TGI: > 100 µM
A498 renal
  GI50: 6.06 µM
  TGI: > 63.5 µM
A549 NSCLC
  GI50: 5.88 µM
  TGI: > 100 µM
ACHN renal
  GI50: 7.87 µM
  TGI: > 100 µM
BT-549 breast
  GI50: 9.58 µM
  TGI: > 100 µM
CAKI-1 renal
  GI50: 53.8 µM
  TGI: > 100 µM
CCRF-CEM leukemia
  GI50: 6.37 µM
  TGI: > 100 µM
COLO 205 colon
  GI50: 12.3 µM
  TGI: > 100 µM
DU-145 prostate
  GI50: 14.7 µM
  TGI: > 100 µM
EKVX NSCLC
  GI50: 12.3 µM
  TGI: > 100 µM
HCC-2998 colon
  GI50: 30.6 µM
  TGI: > 100 µM
HCT-116 colon
  GI50: 3.95 µM
  TGI: > 100 µM
HCT-15 colon
  GI50: 4.8 µM
  TGI: > 100 µM
HL-60(TB) leukemia
  GI50: 1.69 µM
  TGI: 4.23 µM
HOP-62 NSCLC
  GI50: 22 µM
  TGI: > 100 µM
HOP-92 NSCLC
  GI50: 4.33 µM
  TGI: > 49.3 µM
HS 578T breast
  GI50: 7.39 µM
  TGI: > 100 µM
HT29 colon
  GI50: 4.12 µM
  TGI: > 100 µM
IGROV1 ovarian
  GI50: 4 µM
  TGI: > 81.1 µM
K-562 leukemia
  GI50: 3.12 µM
  TGI: > 100 µM
KM12 colon
  GI50: 10.6 µM
  TGI: > 100 µM
LOX IMVI melanoma
  GI50: 5.12 µM
  TGI: > 100 µM
M14 melanoma
  GI50: 8.36 µM
  TGI: > 100 µM
MALME-3M melanoma
  GI50: 7.51 µM
  TGI: > 100 µM
MCF7 breast
  GI50: 4.11 µM
  TGI: > 100 µM
MDA-MB-231 breast
  GI50: 8.47 µM
  TGI: > 100 µM
MDA-MB-435
  GI50: 5.66 µM
  TGI: > 100 µM
MOLT-4 leukemia
  GI50: 2.23 µM
  TGI: 9.36 µM
NCI-H226 lung
  GI50: 15.8 µM
  TGI: > 100 µM
